Results as given in patent US20170166516A1, “STABLE POLYMORPH FORM B OF TAPENTADOL HYDROCHLORIDE” (priority 2014, published 2017).
Structures can show the parent of a compound that is named as a salt.

Experiments:
[1] = Stability test of polymorphic Form B on storage, followed by PXRD; type: physicochemical; conditions: for change in amount of polymorphic Form A in Form B on storage (PXRD): 2 month storage, ambient temperature, sample contains traces of Form A, Hydrochloride
Method: In FIG. 1 the PXRD pattern of a stability sample experiment 1 are shown as well as PXRD pattern of Tapentadol hydrochloride in polymorphic crystal structure A and in polymorphic crystal structure B. The upper most pattern results from a sample (experiment 1) after a 4 month stability test at 27° C. and 42% RH (relative humidity). The second of top pattern results from the initial sample prior to the stability testing. […] The second last pattern represents the mono-crystal structure of pure Tapentadol Hydrochloride in polymorphic crystal Form B. The last pattern represents the mono-crystal structure of pure Tapentadol Hydrochloride in polymorphic crystal Form A.
For Powder X-Ray Diffraction (PXRD) the samples were placed onto a Si-wafer (Bragg-Brentano) or into a standard glass capillary (Ø=0.7 mm) (Example 2). The measurements were performed at room temperature with a D8 Bruker Advance Diffractometer (Cu-Kα1=1.54059 Å, Johansson primary beam monochromator, position sensitive detector) in transmission mode with rotation of the sample.

[2] = cited from earlier work; for stability of the crystalline form: ambient conditions, as disclosed in EP 1 612 203 A1, hydrochloride

## CC[C@@H](c1cccc(O)c1)[C@@H](C)CN(C)C [Example 3, Tapentadol Hydrochloride]
[1]
  change in amount of polymorphic Form A in Form B on storage (PXRD): increase of Form A in Form B was observed
[1]; listed as experimental polymorphic Form B
  change in amount of polymorphic Form A in Form B on storage (PXRD): amount of polymorphic Form A obviously increased

## CC[C@@H](c1cccc(O)c1)[C@@H](C)CN(C)C [Form A, Tapentadol hydrochloride]
[2]
  stability of the crystalline form: stable under ambient conditions

## CC[C@@H](c1cccc(O)c1)[C@@H](C)CN(C)C [Form B, Tapentadol hydrochloride]
[2]
  stability of the crystalline form: meta-stable only

## CC[C@@H](c1cccc(O)c1)[C@@H](C)CN(C)C [experiment 1, Tapentadol Hydrochloride]
[1]; 4 month stability test at 27° C. and 42% RH
  transformation of polymorphic crystal Form B to Form A (PXRD pattern after stability test): does not show any tendency to disintegrate or to transform to polymorphic crystal Form A
[1]; several months of storage under ambient conditions, no seeds of Form A
  transformation of Form B to polymorph A on storage (PXRD): no transformation to polymorph A

## CC[C@@H](c1cccc(O)c1)[C@@H](C)CN(C)C [stable polymorph B, Tapentadol hydrochloride]
[2]; ambient temperatures, stabilised by low alkyl carboxylic acids or esters added during crystallization, WO 2013 111161 A1
  duration of stability of polymorphic Form B: several months
